Consider two compounds from US10610487B2, “Salts of active ingredients with polymeric counterions” (BASF SE, priority 2015, dated 2020).

A word on the thermodynamic solubility: it is solubility found after equilibrating the solid with the medium.

Series [1] can be described thus: physchem. The following applies: thermodynamic from solid.
For series [2] the following is noted: CD water, 100 mg haloperidol per 250 ml, hard gelatine capsule.

Converted amounts (≈) assume the structure as drawn. Like-named read-outs stand apart in the source and are kept apart here.

In series [1] (water), `CN(C)C(=O)C(CCN1CCC(O)(c2ccc(Cl)cc2)CC1)(c1ccccc1)c1ccccc1` [Loperamide, loperamide] came in with a thermodynamic solubility at 72 h of 72.3 µg/mL (≈ 152 µM).

In the case of `O=C(CCCN1CCC(O)(c2ccc(Cl)cc2)CC1)c1ccc(F)cc1` [Haloperidol, haloperidol], the Release of haloperidol is listed as 0.0% in series [2] (0 min); 0.1% in series [2] (2 min); 0.2% in series [2] (4 min); 0.3% in series [2] (6 min); 0.4% in series [2] (8 min); 0.6% in series [2] (10 min). The Release of haloperidol amounted to 1.5% in series [2] (30 min), 1.8% in series [2] (60 min) and 2.3% in series [2] (120 min). In addition, the solubility (thermodynamic) at 72 h is 600 µg/mL (≈ 1600 µM) in series [1] (simulated gastric fluid) and 2.6 µg/mL (≈ 6.92 µM) in series [1] (water).
